The results in this text go back to patent US6150350A, “Antimicrobial compositions” (Hoffman-la Roche Inc., priority 1997, dated 2000).

In brackets after ≈: the same amount, converted by molar mass. Structures can show the parent of a compound that is named as a salt. Some results are limits rather than exact numbers.

What is called MIC50 is the lowest concentration that inhibits either 50% of growth or 50% of the strains tested, depending on the study. Lower therefore signals higher susceptibility. In general, MIC90 refers to the lowest concentration that inhibits either 90% of growth or 90% of the strains tested, depending on the study.

The subject of the experiment is 17 highly resistant MRSA strains. Nature of the experiment: In vitro activity: minimum inhibitory concentration (MIC) by the agar dilution method in Mueller Hinton agar, 17 highly resistant MRSA strains. In kind it is cell-based, Methicillin resistant Staphylococcus aureus (MRSA). The settings on record: inoculum =10^5 CFU/spot. Here is the method: In vitro activity was determined by minimum inhibitory concentration (MIC) by the agar dilution method in Mueller Hinton agar inoculum =10^5 CFU/spot.
A general note: In agar dilution, organisms are placed on agar that contains the substance at set levels.

Turning to `O=C(CSc1cc(Cl)c(Cl)cc1Cl)N[C@@H]1C(=O)N2C(C(=O)O)=C(/C=C3\CCN(C4CCNC4)C3=O)CS[C@H]12` (mixture of isomers) [Ex. 8, Mixture of (E)-(6R,7R)-8-oxo-3-[(R)- and-[(S)-2-oxo-[1,3']bipyrrolidinyl-3-ylidenemethyl]-8-oxo-7-[2-(2,4,5-trichloro-phenylsulfanyl)-acetylamino]-5-thia-1-aza-bicyclo[4.2.0]oct-2-ene-2-carboxylic acid hydrochloride], under “Table 1, substance alone”, the MIC50 is recorded as above 16 mg/L and the MIC90 is recorded as above 16 mg/L. In addition, under “Table 2, substance alone”, the MIC50 is given as above 16 mg/L and the MIC90 was above 16 mg/L.

`CCN1CCN(C(=O)N[C@@H](C(=O)N[C@@H]2C(=O)N3C(C(=O)O)=C(CSc4nnnn4C)CS[C@H]23)c2ccc(O)cc2)C(=O)C1=O` [Cefoperazone, reference compound]: for the setting “Table 1, substance alone”, the MIC50 is reported as above 64 mg/L, the MIC90 is listed as above 64 mg/L and the “range of MIC” value is reported as above 64 mg/L.

Turning to `CO/N=C(\C(=O)N[C@@H]1C(=O)N2C(C(=O)O)=C(COC(C)=O)CS[C@H]12)c1csc(N)n1` [Cefotaxime, reference compound], where the note is “Table 1, substance alone”, the MIC50 is reported as above 64 mg/L, the MIC90 is reported as above 64 mg/L and the “range of MIC” value was above 64 mg/L.

On to `CN(C)CCn1nnnc1SCC1=C(C(=O)O)N2C(=O)[C@@H](NC(=O)Cc3csc(N)n3)[C@H]2SC1` [Cefotiam, reference compound], for which, under “Table 1, substance alone”, the MIC50 was above 64 mg/L, the MIC90 is above 64 mg/L and the “range of MIC” value is above 64 mg/L.

For the compound `Cc1cc(=O)c(C(=O)N[C@@H](C(=O)N[C@@H]2C(=O)N3C(C(=O)O)=C(CSc4nnnn4C)CS[C@H]23)c2ccc(O)cc2)c[nH]1` [Cefpiramid, reference compound], where the note is “Table 1, substance alone”, the MIC50 is above 64 mg/L, the MIC90 was above 64 mg/L and the “range of MIC” value is given as above 64 mg/L.

As for `CO/N=C(\C(=O)N[C@@H]1C(=O)N2C(C(=O)O)=C(CSc3nc(=O)c(=O)[nH]n3C)CS[C@H]12)c1csc(N)n1` [Ceftriaxone, reference compound], under “Table 1, substance alone”, the MIC50 was above 64 mg/L, the MIC90 is reported as above 64 mg/L and the “range of MIC” value is listed as above 64 mg/L.

For the setting “Table 1, substance alone”, `O=C(C[n+]1ccc(CN2CC/C(=C\C3=C(C(=O)[O-])N4C(=O)[C@@H](NC(=O)CSc5cc(Cl)c(Cl)cc5Cl)[C@H]4SC3)C2=O)cc1)Nc1ccc(O)cc1` [Ex. 1, (E)-(6R,7R)-3-[1-[1-[(4-Hydroxy-phenylcarbamoyl)-methyl]-pyridin-1-ium-4-ylmethyl]-2-oxo-pyrrolidin-3-ylidenemethyl]-8-oxo-7-[2-(2,4,5-trichloro-phenylsulfanyl)-acetylamino]-5-thia-1-aza-bicyclo[4.2.0]oct-2-ene-2-carboxylate] showed an MIC50 above 16 mg/L and an MIC90 above 16 mg/L. Where the note is “Table 2, substance alone”, the MIC50 is given as above 16 mg/L and the MIC90 is listed as above 16 mg/L.

In the case of `O=C(C[n+]1ccc(CN2CC/C(=C\C3=C(C(=O)[O-])N4C(=O)[C@@H](NC(=O)CSc5nc6ccccc6s5)[C@H]4SC3)C2=O)cc1)Nc1ccc(O)cc1` [Ex. 2, (E)-(6R,7R)-3-[1-[1-[(4-Hydroxy-phenylcarbamoyl)-methyl]-pyridin-1-ium-4-ylmethyl]-2-oxo-pyrrolidin-3-ylidenemethyl]-8-oxo-7-[2-(1-benzothiazol-2-ylsulfanyl)-acetylamino]-5-thia-1-aza-bicyclo[4.2.0]oct-2-ene-2-carboxylate], where the note is “Table 1, substance alone”, the MIC50 was above 16 mg/L and the MIC90 is on record as above 16 mg/L. Where the note is “Table 2, substance alone”, this compound yielded an MIC50 above 16 mg/L and an MIC90 above 16 mg/L.

As for `O=C(CSc1nc2ccccc2s1)N[C@@H]1C(=O)N2C(C(=O)O)=C(/C=C3\CCN(CC4CC4)C3=O)CS[C@H]12` [Ex. 3, (E)-(6R,7R)-7-[2-(Benzothiazol-2-ylsulfanyl)-acetylamino]-3-(1-cyclopropyl-methyl-2-oxo-pyrrolidin-3-ylidenemethyl)-8-oxo-5-thia-1-aza-bicyclo[4.2.0]-oct-2-ene-2-carboxylic acid], under “Table 1, substance alone”, the MIC50 was 16 mg/L (≈ 28.7 µM) and the MIC90 is recorded as above 16 mg/L.
